Laboratory results published in ChEMBL document CHEMBL1201862, “PubChem BioAssay data set” (2004).
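Step 1: Grow cells in 96-well plates. Step 2: Expose to compound for 48 hours at 5 concentrations. Step 3: Interpolate endpoints linearly; if unreached, use highest concentration. Abbreviation: GI50, concentration required for 50% inhibition of growth.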 The source made the active and inactive calls. No stated cut-off is given here; in the data, active = GI50 up to about 1.1 µM and inactive = higher.

Experiments:
Assay in all cases: NCI-60 cell line screen, 48 h
[1] = system: SK-OV-3
[2] = system: COLO 205
[3] = system: OVCAR-4
[4] = system: CAKI-1
[5] = system: SW-620
[6] = system: OVCAR-8
[7] = system: UO-31
[8] = system: HOP-92
[9] = system: HT-29
[10] = system: HCT-15
[11] = system: SF-268
[12] = system: SF-539
[13] = system: SK-MEL-28
[14] = system: MCF7
[15] = system: 786-0
[16] = system: U-251
[17] = system: PC-3
[18] = system: NCI-H226
[19] = system: MDA-MB-435
[20] = system: LOX IMVI

SMILES	GI50 [1]	GI50 [2]	GI50 [3]	GI50 [4]	GI50 [5]	GI50 [6]	GI50 [7]	GI50 [8]	GI50 [9]	GI50 [10] [µM]	GI50 [11]	GI50 [12]	GI50 [13]	GI50 [14]	GI50 [15]	GI50 [16]	GI50 [17]	GI50 [18]	GI50 [19]	GI50 [20]
CN(CCO)CCCC1COc2ccccc2O1 (configuration not stated)	> 100 µM (inactive)	> 100 µM (inactive)	> 100 µM (inactive)	> 100 µM (inactive)	> 100 µM (inactive)	> 100 µM (inactive)	> 100 µM (inactive)	> 100 µM (inactive)	> 100 µM (inactive)	> 100	20.7 µM (inactive)	> 100 µM (inactive)	> 100 µM (inactive)	> 100 µM (inactive)	> 100 µM (inactive)	> 100 µM (inactive)	> 100 µM (inactive)	> 100 µM (inactive)		
O=C1CSCC(=O)Nc2ccccc2N1	> 100 µM (inactive)	> 100 µM (inactive)	> 100 µM (inactive)	> 100 µM (inactive)	> 100 µM (inactive)	> 100 µM (inactive)	> 100 µM (inactive)	> 100 µM (inactive)	> 100 µM (inactive)	> 100	> 100 µM (inactive)	> 100 µM (inactive)	> 100 µM (inactive)		> 100 µM (inactive)	> 100 µM (inactive)	> 100 µM (inactive)	> 100 µM (inactive)	> 100 µM (inactive)	> 100 µM (inactive)
CCCCc1ccc(C#CC#Cc2ccc(CCCC)s2)s1	> 100 µM (inactive)	> 100 µM (inactive)	> 100 µM (inactive)	> 100 µM (inactive)	> 100 µM (inactive)	> 100 µM (inactive)	> 100 µM (inactive)	> 100 µM (inactive)	> 100 µM (inactive)	> 100	> 100 µM (inactive)	> 100 µM (inactive)		> 100 µM (inactive)	> 100 µM (inactive)	> 100 µM (inactive)		> 100 µM (inactive)	> 100 µM (inactive)	
COc1ccccc1-c1cc(=O)c2ccc(OC)c(OC)c2o1	66.7 µM (inactive)	49.3 µM (inactive)	38.4 µM (inactive)	> 100 µM (inactive)	96.2 µM (inactive)	54.6 µM (inactive)	30.2 µM (inactive)	28.2 µM (inactive)	34.3 µM (inactive)	41.4	> 100 µM (inactive)	> 100 µM (inactive)	> 100 µM (inactive)	45.9 µM (inactive)	89.1 µM (inactive)	46.1 µM (inactive)		> 100 µM (inactive)	46 µM (inactive)	33.1 µM (inactive)
COc1c(Br)cc(/C=C(\C#N)c2cccnc2)cc1Br	56.9 µM (inactive)	34.5 µM (inactive)	81.5 µM (inactive)	> 100 µM (inactive)	38.7 µM (inactive)	53.8 µM (inactive)	> 100 µM (inactive)	23.1 µM (inactive)	26.4 µM (inactive)	33.5	67.6 µM (inactive)	43.7 µM (inactive)	50.5 µM (inactive)	35.8 µM (inactive)	> 100 µM (inactive)	36.3 µM (inactive)	45.4 µM (inactive)	33.7 µM (inactive)		
Cc1noc(NC(=O)Nc2ccccc2F)c1C#N	> 100 µM (inactive)	> 100 µM (inactive)	69.8 µM (inactive)	> 100 µM (inactive)	> 100 µM (inactive)	> 90.8 µM (inactive)	0.918 µM (active)	> 100 µM (inactive)		55.3	12.4 µM (inactive)	> 100 µM (inactive)	> 100 µM (inactive)		7.69 µM (inactive)	21.5 µM (inactive)	> 21.5 µM (inactive)	> 100 µM (inactive)	> 100 µM (inactive)	58.5 µM (inactive)
CC1OC(n2cnc3c(N)nc(Cl)nc32)C(C)(O)C1O (configuration not stated)	> 25 µM (inactive)	> 25 µM (inactive)	> 25 µM (inactive)	> 25 µM (inactive)	> 25 µM (inactive)	19.8 µM (inactive)	16.7 µM (inactive)	> 25 µM (inactive)	> 25 µM (inactive)	> 25	> 25 µM (inactive)	> 25 µM (inactive)		> 25 µM (inactive)	> 25 µM (inactive)			> 25 µM (inactive)	> 25 µM (inactive)	> 25 µM (inactive)
O=[N+]([O-])c1cc(/N=N/c2c(O)ccc3cc(S(=O)(=O)O)ccc23)c(O)c([N+](=O)[O-])c1	> 100 µM (inactive)	> 100 µM (inactive)	> 100 µM (inactive)	> 100 µM (inactive)	93.1 µM (inactive)	35.7 µM (inactive)	39.4 µM (inactive)	> 100 µM (inactive)	50.2 µM (inactive)	51.8	> 100 µM (inactive)		> 100 µM (inactive)		> 100 µM (inactive)	> 100 µM (inactive)	90.6 µM (inactive)	47.9 µM (inactive)	> 100 µM (inactive)	49 µM (inactive)
O/N=N\c1nc(-c2ccccn2)nc2ccccc12	55.5 µM (inactive)	6.15 µM (inactive)	8.05 µM (inactive)	2.12 µM (inactive)	5.35 µM (inactive)	12.4 µM (inactive)	18.7 µM (inactive)		0.611 µM (active)	1.53	11.7 µM (inactive)	17.1 µM (inactive)	16 µM (inactive)	4.76 µM (inactive)	3.68 µM (inactive)	17.5 µM (inactive)	11.7 µM (inactive)	12.7 µM (inactive)		
O=C(O)CCC[C@]1(O)O[C@@]2(CCCC2=O)[C@]2(O)CCC[C@@]21O		> 100 µM (inactive)	> 100 µM (inactive)	26.5 µM (inactive)	> 100 µM (inactive)	> 100 µM (inactive)	> 100 µM (inactive)	> 100 µM (inactive)	> 100 µM (inactive)	> 100	> 100 µM (inactive)	> 100 µM (inactive)	> 100 µM (inactive)	> 100 µM (inactive)	> 100 µM (inactive)	> 100 µM (inactive)	> 100 µM (inactive)	> 100 µM (inactive)		> 100 µM (inactive)
COC1(CCO)CC=CCC1(CCO)OC (configuration not stated)	> 100 µM (inactive)	> 100 µM (inactive)	> 100 µM (inactive)	> 100 µM (inactive)	> 100 µM (inactive)	> 100 µM (inactive)	> 100 µM (inactive)	> 100 µM (inactive)	> 100 µM (inactive)	> 100	> 100 µM (inactive)		> 100 µM (inactive)	> 100 µM (inactive)	> 100 µM (inactive)		> 100 µM (inactive)	> 100 µM (inactive)		> 100 µM (inactive)
Cc1c(/C=N\NC(=S)N2CCN(C(=S)N/N=C\c3c(C)n(C)n(-c4ccccc4)c3=O)CC2)c(=O)n(-c2ccccc2)n1C	> 100 µM (inactive)	> 100 µM (inactive)	> 100 µM (inactive)	82.6 µM (inactive)	33.2 µM (inactive)		> 100 µM (inactive)	40.9 µM (inactive)	13.1 µM (inactive)	46.9	> 100 µM (inactive)	> 100 µM (inactive)			33.7 µM (inactive)	29.1 µM (inactive)	32.9 µM (inactive)	> 100 µM (inactive)	4.52 µM (inactive)	
